Data from PubChem BioAssay AID330 (DTP/NCI, 2004).
Several values for one entry are separate records, joined by “and”; a condition that tells them apart may be missing. Equal values may be shown once. Toxic doses and inconclusive results are not listed. Rule for the calls: active = survival T/C of 150% or more; inactive = T/C below 125% in these data. Peptide text beside a SMILES is read from it. * marks the point of attachment. Cbz = O=C(OCc1ccccc1)*

System: P388 leukemia ip, CD2F1 mice, survival T/C
Test: NCI In Vivo Anticancer Drug Screen. Data for tumor model P388 Leukemia (intraperitoneal) in CD2F1 (CDF1) mice
Conditions: endpoint: median survival time, higher = longer survival
Method in brief: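 Mice carrying the transplanted tumor received test compound or vehicle. Survival was recorded in each group, and the value is the treated-group measurement divided by that of the vehicle-treated control group.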

[1] = dose: 12.5 mg/kg/injection, schedule: Q01DX005 (ip), vehicle: saline with Tween-80
[2] = dose: 25.0 mg/kg/injection, schedule: Q01DX005 (ip), vehicle: saline with Tween-80
[3] = dose: 50.0 mg/kg/injection, schedule: Q01DX005 (ip), vehicle: saline with Tween-80
[4] = dose: 100.0 mg/kg/injection, schedule: Q01DX005 (ip), vehicle: saline with Tween-80
[5] = dose: 100.0 mg/kg/injection, schedule: Q04DX003 (ip), vehicle: Klucel (hydroxypropylcellulose) (HPC)
[6] = dose: 200.0 mg/kg/injection, schedule: Q04DX003 (ip), vehicle: Klucel (hydroxypropylcellulose) (HPC)
[7] = dose: 400.0 mg/kg/injection, schedule: Q04DX003 (ip), vehicle: Klucel (hydroxypropylcellulose) (HPC)
[8] = dose: 100.0 mg/kg/injection, schedule: Q01DX001 (ip), vehicle: saline with Tween-80
[9] = dose: 60.0 mg/kg/injection, schedule: Q01DX005 (ip), vehicle: saline with Tween-80
[10] = dose: 120.0 mg/kg/injection, schedule: Q01DX005 (ip), vehicle: saline with Tween-80
[11] = dose: 240.0 mg/kg/injection, schedule: Q01DX005 (ip), vehicle: saline with Tween-80
[12] = dose: 6.25 mg/kg/injection, schedule: Q01DX005 (ip), vehicle: saline with Tween-80
[13] = dose: 200.0 mg/kg/injection, schedule: Q01DX005 (ip), vehicle: saline with Tween-80
[14] = dose: 50.0 mg/kg/injection, schedule: Q01DX005 (ip), vehicle: Klucel (hydroxypropylcellulose) (HPC)
[15] = dose: 100.0 mg/kg/injection, schedule: Q01DX005 (ip), vehicle: Klucel (hydroxypropylcellulose) (HPC)
[16] = dose: 200.0 mg/kg/injection, schedule: Q01DX005 (ip), vehicle: Klucel (hydroxypropylcellulose) (HPC)
[17] = dose: 50.0 mg/kg/injection, schedule: Q01DX009 (ip), vehicle: saline with Tween-80
[18] = dose: 50.0 mg/kg/injection, schedule: Q04DX002 (ip), vehicle: Klucel (hydroxypropylcellulose) (HPC)
[19] = dose: 12.5 mg/kg/injection, schedule: Q01DX009 (ip), vehicle: saline with Tween-80
[20] = dose: 25.0 mg/kg/injection, schedule: Q01DX009 (ip), vehicle: saline with Tween-80
[21] = dose: 7.5 mg/kg/injection, schedule: Q01DX005 (ip), vehicle: saline
[22] = dose: 15.0 mg/kg/injection, schedule: Q01DX005 (ip), vehicle: saline
[23] = dose: 100.0 mg/kg/injection, schedule: Q01DX009 (ip), vehicle: Klucel (hydroxypropylcellulose) (HPC)
[24] = dose: 200.0 mg/kg/injection, schedule: Q01DX009 (ip), vehicle: Klucel (hydroxypropylcellulose) (HPC)

Measured: T/C

CCCCCCCC(O)CCCCCCC
inactive: dose: 100.0 mg/kg/injection, schedule: Q04DX003 (ip), vehicle: other 100 % of control | dose: 200.0 mg/kg/injection, schedule: Q04DX003 (ip), vehicle: other 100 % of control | dose: 400.0 mg/kg/injection, schedule: Q04DX003 (ip), vehicle: other 109 % of control

C=CC(C)(C)c1cc2cc3c(cc2oc1=O)OC1(C)CCC(C(C)(C)O)OC1C3 (stereo not drawn)
inactive: [1] 99 % of control | [2] 99 % of control | [3] 93 % of control | [4] 89 % of control

Cn1cc(/C=C/[N+](=O)[O-])c2ccc(OCc3ccccc3)cc21
inactive: [5] 105 % of control | [6] 95 % of control | [7] 97 % of control

O=c1[nH]c(=O)n(CC(O)CO)cc1/C=C/Br (stereo not drawn)
inactive: [8] 106 % of control | dose: 200.0 mg/kg/injection, schedule: Q01DX001 (ip), vehicle: saline with Tween-80 101 % of control | dose: 400.0 mg/kg/injection, schedule: Q01DX001 (ip), vehicle: saline with Tween-80 100 % of control

CC(C)(C)c1cc(-c2c3nc(c(-c4cc(C(C)(C)C)c(O)c(C(C)(C)C)c4)c4ccc([nH]4)c(-c4cc(C(C)(C)C)c(O)c(C(C)(C)C)c4)c4nc(c(-c5cc(C(C)(C)C)c(O)c(C(C)(C)C)c5)c5ccc2[nH]5)C=C4)C=C3)cc(C(C)(C)C)c1O
inactive: [9] 90 % of control | [10] 88 % of control | [11] 88 % of control

O=C1OC2C(O)COC2(N=Nc2ccc(Cl)cc2)/C1=N/Nc1ccccc1 (stereo not drawn)
inactive: [12] 104 % of control | [1] 93 % of control | [2] 89 % of control | [13] 90 % of control

CSc1nc2c(SC)ncnc2s1
inactive: dose: 100.0 mg/kg/injection, schedule: Q01DX001 (ip), vehicle: distilled water + alcohol 103 % of control | dose: 200.0 mg/kg/injection, schedule: Q01DX001 (ip), vehicle: distilled water + alcohol 94 % of control | dose: 400.0 mg/kg/injection, schedule: Q01DX001 (ip), vehicle: distilled water + alcohol 98 % of control

CC(=O)c1cc2c(cc1O)OC(C)(C)C=C2
inactive: dose: 25.0 mg/kg/injection, schedule: Q01DX005 (ip), vehicle: Klucel (hydroxypropylcellulose) (HPC) 101 % of control | [14] 99 % of control | [15] 91 % of control | [16] 92 % of control

CC(=O)C(Cc1ccccc1)NC(=O)C(F)(F)F (stereo not drawn)
inactive: [17] 93 % of control | dose: 100.0 mg/kg/injection, schedule: Q01DX009 (ip), vehicle: saline with Tween-80 90 % of control | dose: 200.0 mg/kg/injection, schedule: Q01DX009 (ip), vehicle: saline with Tween-80 98 % of control

O=c1[nH]c2ccccc2cc1CBr
inactive: [18] 95 % of control | dose: 100.0 mg/kg/injection, schedule: Q04DX002 (ip), vehicle: Klucel (hydroxypropylcellulose) (HPC) 102 % of control and 104 % of control | dose: 400.0 mg/kg/injection, schedule: Q04DX002 (ip), vehicle: Klucel (hydroxypropylcellulose) (HPC) 96 % of control

CN(C)C(=S)S(=O)(=O)c1ccc(Cl)cc1
inactive: [19] 105 % of control | [20] 96 % of control | dose: 25.0 mg/kg/injection, schedule: Q04DX002 (ip), vehicle: Klucel (hydroxypropylcellulose) (HPC) 119 % of control | [17] 96 % of control | [18] 112 % of control

CCCCS(=O)(=O)C(C)(Cl)C(=O)OCC (stereo not drawn)
inactive: dose: 25.0 mg/kg/injection, schedule: Q01DX001 (ip), vehicle: saline with Tween-80 100 % of control | dose: 50.0 mg/kg/injection, schedule: Q01DX001 (ip), vehicle: saline with Tween-80 100 % of control | [8] 106 % of control and 93 % of control

COC(=O)C(CO)NC(=O)C(CO)NC(=O)OCc1ccccc1 (stereo not drawn) (Cbz-Ser-Ser-OMe; configuration not given here)
inactive: [14] 100 % of control | [15] 98 % of control | [16] 101 % of control

c1ccc(-c2ccc[n+](CCCC[n+]3cccc(-c4ccccn4)c3)c2)nc1
inactive: [21] 106 % of control | [22] 106 % of control

CCCCNC(C)(C)C(SSSC(c1cccs1)C(C)(C)NCCCC)c1cccs1 (stereo not drawn)
inactive: [3] 121 % of control | [4] 120 % of control | dose: 100.0 mg/kg/injection, schedule: Q04DX003 (ip), vehicle: saline with Tween-80 101 % of control | [13] 123 % of control | dose: 200.0 mg/kg/injection, schedule: Q04DX003 (ip), vehicle: saline with Tween-80 105 % of control | dose: 400.0 mg/kg/injection, schedule: Q04DX003 (ip), vehicle: saline with Tween-80 105 % of control

COC1=CC(=O)c2nc(Cl)ccc2C1=O
inactive: [12] 100 % of control | [1] 100 % of control | [2] 108 % of control and 92 % of control | [3] 100 % of control

S=c1[nH]nc(-c2cnns2)o1
inactive: dose: 50.0 mg/kg/injection, schedule: Q04DX003 (ip), vehicle: Klucel (hydroxypropylcellulose) (HPC) 103 % of control | [5] 98 % of control | [6] 107 % of control

CCOP(=O)(O)C1CCCC(C)[N-]1.CCOP(=O)(O)C1CCCC(C)[N-]1.CCOP(=O)(O)C1CCCC(C)[N-]1.[Cr+3] (stereo not drawn)
inactive: [5] 100 % of control | [6] 92 % of control

COC(=O)c1nnn(-c2cc(Cl)ccc2Cl)c1C(=O)c1ccc(OC)cc1
inactive: [9] 95 % of control | [10] 100 % of control | [11] 89 % of control

CN1C(c2cccnc2)=NCC12CCCC2
inactive: [21] 98 % of control | [22] 96 % of control | dose: 30.0 mg/kg/injection, schedule: Q01DX005 (ip), vehicle: saline 97 % of control

CCC[C@H]1N=C(OCC)N[C@@H]1CCC
inactive: dose: 6.25 mg/kg/injection, schedule: Q01DX005 (ip), vehicle: Klucel (hydroxypropylcellulose) (HPC) 108 % of control | dose: 12.5 mg/kg/injection, schedule: Q01DX005 (ip), vehicle: Klucel (hydroxypropylcellulose) (HPC) 117 % of control

CCCN(CCC)C(C)C(O)c1cc2c(c3ccccc13)CCCC2 (stereo not drawn)
inactive: [23] 109 % of control | [24] 93 % of control

O=S1(=O)c2ccccc2N(c2ccccc2)c2nnc(COc3ccccc3)n21
inactive: [3] 90 % of control | [4] 88 % of control

O=C1NC(=O)C2CC3C(CC12)C1C(=O)NC(=O)C31 (stereo not drawn)
inactive: [3] 104 % of control | [4] 101 % of control

Cc1cc(C)n(-c2ccc(S(=O)(=O)N3CC(=O)N(c4ccccc4)C3=S)cc2)n1
inactive: [3] 95 % of control | [4] 93 % of control

C[N+]1(CSc2ccccc2)CCCCC1
inactive: [19] 100 % of control | [20] 98 % of control

O=C(O)Cn1nnc2ccccc21
inactive: dose: 100.0 mg/kg/injection, schedule: Q01DX009 (ip), vehicle: saline 101 % of control | dose: 200.0 mg/kg/injection, schedule: Q01DX009 (ip), vehicle: saline 96 % of control

Cc1ccc(S(=O)(=O)N(CCc2ccccc2)S(=O)(=O)c2ccc(C)cc2)cc1
inactive: dose: 50.0 mg/kg/injection, schedule: Q01DX009 (ip), vehicle: Klucel (hydroxypropylcellulose) (HPC) 94 % of control | [23] 100 % of control | [24] 109 % of control

O=[N+]([O-])CC1CCCCC1O (stereo not drawn)
inactive: dose: 6.25 mg/kg/injection, schedule: Q01DX009 (ip), vehicle: saline with Tween-80 100 % of control | [19] 100 % of control | [20] 90 % of control

O=C(O)N1CCc2c(sc3ccccc23)C1
inactive: dose: 12.5 mg/kg/injection, schedule: Q01DX001 (ip), vehicle: Klucel (hydroxypropylcellulose) (HPC) 103 % of control | dose: 25.0 mg/kg/injection, schedule: Q01DX001 (ip), vehicle: Klucel (hydroxypropylcellulose) (HPC) 98 % of control | dose: 50.0 mg/kg/injection, schedule: Q01DX001 (ip), vehicle: Klucel (hydroxypropylcellulose) (HPC) 100 % of control and 104 % of control

O=[N+]([O-])c1cccc(CNc2ccccc2)c1
inactive: [5] 101 % of control | [6] 101 % of control | [7] 109 % of control
